Results published in ChEMBL document CHEMBL1795338, “Identification of pentacyclic triterpenes derivatives as potent inhibitors against glycogen phosphorylase based on 3D-QSAR studies” (Eur J Med Chem, 2011).

Target: T1, Glycogen phosphorylase, muscle form (Oryctolagus cuniculus, UniProt P00489)
T1 sequence (P00489 whole entry): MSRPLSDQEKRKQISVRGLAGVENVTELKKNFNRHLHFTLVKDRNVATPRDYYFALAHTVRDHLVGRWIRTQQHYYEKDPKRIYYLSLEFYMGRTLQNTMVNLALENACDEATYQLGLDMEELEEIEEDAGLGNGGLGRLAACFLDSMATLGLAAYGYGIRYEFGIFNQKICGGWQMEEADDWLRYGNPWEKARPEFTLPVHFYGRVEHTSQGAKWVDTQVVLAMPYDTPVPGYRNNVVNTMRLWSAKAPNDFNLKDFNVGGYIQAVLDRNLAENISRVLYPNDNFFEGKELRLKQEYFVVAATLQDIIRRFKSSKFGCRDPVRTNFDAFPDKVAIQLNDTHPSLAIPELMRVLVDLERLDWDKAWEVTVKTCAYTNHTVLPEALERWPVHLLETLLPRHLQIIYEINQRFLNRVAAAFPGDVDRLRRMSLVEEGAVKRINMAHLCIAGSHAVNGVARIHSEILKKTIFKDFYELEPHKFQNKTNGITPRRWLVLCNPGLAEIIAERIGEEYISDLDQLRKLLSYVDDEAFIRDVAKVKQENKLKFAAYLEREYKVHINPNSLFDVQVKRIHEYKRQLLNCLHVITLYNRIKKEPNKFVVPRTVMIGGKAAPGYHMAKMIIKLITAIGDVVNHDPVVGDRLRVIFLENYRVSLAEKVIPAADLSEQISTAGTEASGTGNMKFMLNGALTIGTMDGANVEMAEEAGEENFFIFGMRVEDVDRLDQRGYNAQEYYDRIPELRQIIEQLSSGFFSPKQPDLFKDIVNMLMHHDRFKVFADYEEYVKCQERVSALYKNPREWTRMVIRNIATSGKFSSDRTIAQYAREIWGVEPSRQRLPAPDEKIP
Experiment: Inhibition of rabbit muscle glycogen phosphorylase A assessed as release of phosphate from glucose-1-phosphate after 25 mins by microplate reader based method

CC1(C)CC[C@]2(C(=O)O)CC[C@]3(C)C(=CC[C@@H]4[C@@]5(C)C[C@@H](O)CC(C)(C)[C@@H]5CC[C@]43C)[C@@H]2C1 and CC1(C)CC[C@]2(C(=O)O)CC[C@]3(C)C(=CC[C@@H]4[C@@]5(C)C[C@H](O)CC(C)(C)[C@@H]5CC[C@]43C)[C@@H]2C1 are within 1.5-fold of each other in IC50: 16.1 µM for the first, 22.7 µM for the second.

CC1(C)CC[C@]2(C(=O)OC3CC3)CC[C@]3(C)C(=CC[C@@H]4[C@@]5(C)C[C@H](O)CC(C)(C)[C@@H]5CC[C@]43C)[C@@H]2C1 and C[C@H]1[C@H](C)CC[C@]2(C(=O)O)CC[C@]3(C)C(=CC[C@@H]4[C@@]5(C)C[C@H](O)CC(C)(C)[C@@H]5CC[C@]43C)[C@H]12 are within 1.5-fold of each other in IC50: 23.1 µM for the first, 20.6 µM for the second.

Going from C[C@H]1[C@H](C)CC[C@]2(C(=O)OCc3ccccc3)CC[C@]3(C)C(=CC[C@@H]4[C@@]5(C)C[C@H](O)CC(C)(C)[C@@H]5CC[C@]43C)[C@H]12 to C[C@H]1[C@H](C)CC[C@]2(C(=O)OCc3ccccc3)CC[C@]3(C)C(=CC[C@@H]4[C@@]5(C)C=C(O)C(=O)C(C)(C)[C@@H]5CC[C@]43C)[C@H]12, the IC50 falls from 22.3 µM to 7.31 µM (3.1-fold).

CC1(C)CC[C@]2(C(=O)OCCCCCCN)CC[C@]3(C)C(=CC[C@@H]4[C@@]5(C)CC[C@H](O)C(C)(C)[C@@H]5CC[C@]43C)[C@@H]2C1 and CCCCNCCCCCCOC(=O)[C@]12CCC(C)(C)C[C@H]1C1=CC[C@@H]3[C@@]4(C)CC[C@H](O)C(C)(C)[C@@H]4CC[C@@]3(C)[C@]1(C)CC2 are within 1.5-fold of each other in IC50: 14.1 µM for the first, 12.6 µM for the second.

Cc1ccc(NCCCCCCOC(=O)[C@]23CCC(C)(C)C[C@H]2C2=CC[C@@H]4[C@@]5(C)CC[C@H](O)C(C)(C)[C@@H]5CC[C@@]4(C)[C@]2(C)CC3)cc1 and CC(=O)OCc1cn(CCCCCCn2cc(COC(=O)[C@]34CCC(C)(C)C[C@H]3C3=CC[C@@H]5[C@@]6(C)CC[C@H](O)C(C)(C)[C@@H]6CC[C@@]5(C)[C@]3(C)CC4)nn2)nn1 are within 1.5-fold of each other in IC50: 28.1 µM for the first, 20.7 µM for the second.

Going from CO[C@H]1O[C@H](Cn2cc(COC(=O)[C@]34CCC(C)(C)C[C@H]3C3=CC[C@@H]5[C@@]6(C)CC[C@H](O)C(C)(C)[C@@H]6CC[C@@]5(C)[C@]3(C)CC4)nn2)[C@@H](O)[C@H](O)[C@H]1O to CC1(C)CC[C@]2(C(=O)O)CC[C@]3(C)C(=CC[C@@H]4[C@@]5(C)CC[C@H](OC(=O)Cn6cc(COC(=O)Cc7ccccc7)nn6)C(C)(C)[C@@H]5CC[C@]43C)[C@@H]2C1, the IC50 rises from 1.14 µM to 30.9 µM (27-fold).

Going from CC(=O)OCCCCCCOC(=O)[C@H](O)CC(=O)OCCCCCCOC(=O)[C@]12CCC(C)(C)C[C@H]1C1=CC[C@@H]3[C@@]4(C)CC[C@H](O)C(C)(C)[C@@H]4CC[C@@]3(C)[C@]1(C)CC2 to CCCCCCCCCCCC(=O)OCc1cn(CC(=O)O[C@H]2CC[C@]3(C)[C@H]4CC=C5[C@@H]6CC(C)(C)CC[C@]6(C(=O)OCc6ccccc6)CC[C@@]5(C)[C@]4(C)CC[C@H]3C2(C)C)nn1, the IC50 falls from 12.3 µM to 7.76 µM (1.6-fold).

CC1(C)CC[C@]2(C(=O)OCc3ccccc3)CC[C@]3(C)C(=CC[C@@H]4[C@@]5(C)CC[C@H](OC(=O)CCl)C(C)(C)[C@@H]5CC[C@]43C)[C@@H]2C1 and CC1(C)CC[C@]2(C(=O)OCc3ccccc3)CC[C@]3(C)C(=CC[C@@H]4[C@@]5(C)CC[C@H](OC(=O)CN=[N+]=[N-])C(C)(C)[C@@H]5CC[C@]43C)[C@@H]2C1 are within 1.5-fold of each other in IC50: 12.6 µM for the first, 12.7 µM for the second.

Compared with CCN(CC)CC(=O)O[C@H]1CC[C@]2(C)[C@H]3CC=C4[C@@H]5CC(C)(C)CC[C@]5(C(=O)OCc5ccccc5)CC[C@@]4(C)[C@]3(C)CC[C@H]2C1(C)C, CC1(C)CC[C@]2(C(=O)OCc3ccccc3)CC[C@]3(C)C(=CC[C@@H]4[C@@]5(C)CC[C@H](OC(=O)[n+]6ccccc6)C(C)(C)[C@@H]5CC[C@]43C)[C@@H]2C1 is 3.7-fold lower in IC50: 20.1 µM for the first, 5.39 µM for the second.

First: CC1(C)CC[C@]2(C(=O)OCc3ccccc3)CC[C@]3(C)C(=CC[C@@H]4[C@@]5(C)CC[C@H](OC(=O)c6ccc([N+](=O)[O-])cc6)C(C)(C)[C@@H]5CC[C@]43C)[C@@H]2C1
Second: CC1(C)CC[C@]2(C(=O)OCc3ccccc3)CC[C@]3(C)C(=CC[C@@H]4[C@@]5(C)CC[C@H](OC(=O)c6ccc(N)cc6)C(C)(C)[C@@H]5CC[C@]43C)[C@@H]2C1
The IC50 of the first is 7.6-fold higher: 16.1 µM for the first, 2.13 µM for the second. The second is the more potent here.

First: CC1(C)CC[C@]2(C(=O)OCc3ccccc3)CC[C@]3(C)C(=CC[C@@H]4[C@@]5(C)CC[C@H](OC(=O)Cn6cc(COC(=O)Cc7ccccc7)nn6)C(C)(C)[C@@H]5CC[C@]43C)[C@@H]2C1
Second: COC(=O)[C@H](Cc1ccc(OCc2cn(CC(=O)O[C@H]3CC[C@]4(C)[C@H]5CC=C6[C@@H]7CC(C)(C)CC[C@]7(C(=O)OCc7ccccc7)CC[C@@]6(C)[C@]5(C)CC[C@H]4C3(C)C)nn2)cc1)NC(=O)OC(C)(C)C
The IC50 of the first is 1.6-fold higher: 27.7 µM for the first, 17.5 µM for the second. The second is the more potent here.

CC(=O)O[C@H]1CC[C@]2(C)[C@H]3CC=C4[C@@H]5CC(C)(C)CC[C@]5(C(=O)OC[C@H](O)[C@H]5OC(=O)C(O)=C5O)CC[C@@]4(C)[C@]3(C)CC[C@H]2C1(C)C and CC(=O)O[C@H]1CC[C@]2(C)[C@H]3CC=C4[C@@H]5[C@@H](C)[C@H](C)CC[C@]5(C(=O)OC[C@H](O)[C@H]5OC(=O)C(O)=C5O)CC[C@@]4(C)[C@]3(C)CC[C@H]2C1(C)C are within 1.5-fold of each other in IC50: 2.23 µM for the first, 1.53 µM for the second.

Compared with CC(=O)NCCNCCNC(=O)[C@]12CCC(C)(C)C[C@H]1C1=CC[C@@H]3[C@@]4(C)CC[C@H](OC(C)=O)C(C)(C)[C@@H]4CC[C@@]3(C)[C@]1(C)CC2, CC(=O)n1cc2c(n1)C(C)(C)[C@@H]1CC[C@]3(C)[C@H](CC=C4[C@@H]5CC(C)(C)CC[C@]5(C(=O)O)CC[C@]43C)[C@@]1(C)C2 is 17-fold higher in IC50: 3.25 µM for the first, 53.8 µM for the second. The first is the more potent here.

Compared with C[C@H]1[C@H](C)CC[C@]2(C(=O)OCCBr)CC[C@]3(C)C(=CC[C@@H]4[C@@]5(C)CC[C@H](O)C(C)(C)[C@@H]5CC[C@]43C)[C@H]12, C[C@H]1[C@H](C)CC[C@]2(C(=O)OCCNC3CCCCC3)CC[C@]3(C)C(=CC[C@@H]4[C@@]5(C)CC[C@H](O)C(C)(C)[C@@H]5CC[C@]43C)[C@H]12 is 2.5-fold higher in IC50: 10.2 µM for the first, 25.6 µM for the second. The first is the more potent here.

First: COCc1cn(CCCCCCn2cc(CO[C@H]3CC[C@]4(C)[C@H]5CC=C6[C@@H]7CC(C)(C)CC[C@]7(C(=O)O)CC[C@@]6(C)[C@]5(C)CC[C@H]4C3(C)C)nn2)nn1
Second: CCC(=O)n1cc2c(n1)C(C)(C)[C@@H]1CC[C@]3(C)[C@H](CC=C4[C@@H]5CC(C)(C)CC[C@]5(C(=O)O)CC[C@]43C)[C@@]1(C)C2
The IC50 of the first is 14-fold lower: 2.59 µM for the first, 37.2 µM for the second. The first is the more potent here.

Going from CC1(C)CC[C@]2(C(=O)OCc3ccccc3)CC[C@]3(C)C(=CC[C@@H]4[C@@]5(C)Cc6cn[nH]c6C(C)(C)[C@@H]5CC[C@]43C)[C@@H]2C1 to Cn1cc2c(n1)C(C)(C)[C@@H]1CC[C@]3(C)[C@H](CC=C4[C@@H]5CC(C)(C)CC[C@]5(C(=O)OCc5ccccc5)CC[C@]43C)[C@@]1(C)C2, the IC50 rises from 8.1 µM to 188 µM (23-fold).

Compared with CC1(C)CC[C@]2(COC(=O)CCC(=O)O)CC[C@]3(C)C(=CC[C@@H]4[C@@]5(C)Cc6c[nH]nc6C(C)(C)[C@@H]5CC[C@]43C)[C@@H]2C1, CC1(C)CC[C@]2(C(=O)O)CC[C@]3(C)C(=CC[C@@H]4[C@@]5(C)Cc6cn[nH]c6C(C)(C)[C@@H]5CC[C@]43C)[C@@H]2C1 is 3.2-fold lower in IC50: 24.7 µM for the first, 7.8 µM for the second. The second is the more potent here.

Compared with C[C@H]1[C@H](C)CC[C@]2(C(=O)O)CC[C@]3(C)C(=CC[C@@H]4[C@@]5(C)Cc6cn[nH]c6C(C)(C)[C@@H]5CC[C@]43C)[C@H]12, C[C@H]1[C@H](C)CC[C@]2(C(=O)OCc3ccccc3)CC[C@]3(C)C(=CC[C@@H]4[C@@]5(C)Cc6cn[nH]c6C(C)(C)[C@@H]5CC[C@]43C)[C@H]12 is 1.8-fold higher in IC50: 40.4 µM for the first, 72.9 µM for the second. The first is the more potent here.

CCn1cc2c(n1)C(C)(C)[C@@H]1CC[C@]3(C)[C@H](CC=C4[C@@H]5CC(C)(C)CC[C@]5(C(=O)OCc5ccccc5)CC[C@]43C)[C@@]1(C)C2 and CC1(C)CC[C@]2(C(=O)OCc3ccccc3)CC[C@]3(C)C(=CC[C@@H]4[C@@]5(C)Cc6cn(CC(=O)O)nc6C(C)(C)[C@@H]5CC[C@]43C)[C@@H]2C1 are within 1.5-fold of each other in IC50: 64.6 µM for the first, 47.1 µM for the second.

Going from CC1(C)CC[C@]2(C(=O)OCc3ccccc3)CC[C@]3(C)C(=CC[C@@H]4[C@@]5(C)Cc6cn(C7CC7)nc6C(C)(C)[C@@H]5CC[C@]43C)[C@@H]2C1 to CCOC(=O)Cn1cc2c(n1)C(C)(C)[C@@H]1CC[C@]3(C)[C@H](CC=C4[C@@H]5CC(C)(C)CC[C@]5(C(=O)OCc5ccccc5)CC[C@]43C)[C@@]1(C)C2, the IC50 rises from 20.5 µM to 111 µM (5.4-fold). The first is the more potent here.

CC1(C)CC[C@]2(C(=O)OCc3ccccc3)CC[C@]3(C)C(=CC[C@@H]4[C@@]5(C)Cc6cn(Cc7ccccc7)nc6C(C)(C)[C@@H]5CC[C@]43C)[C@@H]2C1 and CC1(C)CC[C@]2(C(=O)OCc3ccccc3)CC[C@]3(C)C(=CC[C@@H]4[C@@]5(C)Cc6cn(Cc7ccc(Cl)cc7Cl)nc6C(C)(C)[C@@H]5CC[C@]43C)[C@@H]2C1 are within 1.5-fold of each other in IC50: 126 µM for the first, 179 µM for the second.

Compound CC1(C)CC[C@]2(C(=O)O)CC[C@]3(C)C(=CC[C@@H]4[C@@]5(C)Cc6cn(S(C)(=O)=O)nc6C(C)(C)[C@@H]5CC[C@]43C)[C@@H]2C1 has an IC50 of 49.3 µM.
